Measurements taken from ChEMBL document CHEMBL6182831, “Thiazole-fused androstenone and ethisterone derivatives: potent β- and γ-actin cytoskeleton inhibitors to treat melanoma tumors” (RSC Med Chem, 2025).

Columns and labels:
Format in all cases: functional
[1] = system: SK-MEL-5; test: Cytotoxicity against human SK-MEL-5 cells assessed as inhibition of cell growth incubated for 24 hrs by resazurin staining based analysis; details: SK-MEL-5, 24 h
[2] = system: LOX IMVI; test: Cytotoxicity against human LOX IMVI cells assessed as inhibition of cell growth incubated for 24 hrs by resazurin staining based analysis
[3] = system: B16-F10; test: Cytotoxicity against mouse B16-F10 cells assessed as inhibition of cell growth incubated for 24 hrs by resazurin staining based analysis; details: B16-F10, 24 h
[4] = system: SK-MEL-28; test: Cytotoxicity against human SK-MEL-28 cells assessed as inhibition of cell growth incubated for 24 hrs by resazurin staining based analysis; details: SK-MEL-28, 24 h
[5] = system: SK-MEL-25; test: Cytotoxicity against human SK-MEL-25 cells assessed as inhibition of cell growth incubated for 24 hrs by resazurin staining based analysis; details: SK-MEL-25, 24 h

SMILES	IC50 [1] [µM]	IC50 [2] [µM]	IC50 [3] [µM]	IC50 [4] [µM]	IC50 [5] [µM]
C#C[C@]1(O)CC[C@H]2[C@@H]3CC=C4c5sc(-c6cccc(O)c6)nc5CC[C@]4(C)[C@H]3CC[C@@]21C	3.5	4.1	2.9	6	6.6
C#C[C@]1(O)CC[C@H]2[C@@H]3CC=C4c5sc(Nc6cc(Cl)ccn6)nc5CC[C@]4(C)[C@H]3CC[C@@]21C	3.6	3	3.8	2.8	4.4
C[C@]12CCc3nc(Nc4ccc(OC(F)(F)F)cc4)sc3C1=CC[C@@H]1[C@@H]2CC[C@]2(C)C(=O)CC[C@@H]12	> 20	9.3	11.7	> 20	12.5
C#C[C@]1(O)CC[C@H]2[C@@H]3CC=C4c5sc(Nc6ccncc6)nc5CC[C@]4(C)[C@H]3CC[C@@]21C	2.9	2.5	6.7	4.2	7.9
C#C[C@]1(O)CC[C@H]2[C@@H]3CC=C4c5sc(Nc6ccc(OC)cc6OC)nc5CC[C@]4(C)[C@H]3CC[C@@]21C	3	3.4	7.7	4.7	3.3
C#C[C@]1(O)CC[C@H]2[C@@H]3CC=C4c5sc(-c6cccc(F)c6)nc5CC[C@]4(C)[C@H]3CC[C@@]21C	20	15.3	8.5	14	> 20
C#C[C@]1(O)CC[C@H]2[C@@H]3CC=C4c5sc(-c6ccc7c(c6)OCO7)nc5CC[C@]4(C)[C@H]3CC[C@@]21C	4.9	> 20	13	6.1	4.2
C#C[C@]1(O)CC[C@H]2[C@@H]3CC=C4c5sc(Nc6ncccc6C)nc5CC[C@]4(C)[C@H]3CC[C@@]21C	5.5	4.8	2.9	2.4	> 20
C[C@]12CCc3nc(Nc4cccc(F)c4)sc3C1=CC[C@@H]1[C@@H]2CC[C@]2(C)C(=O)CC[C@@H]12	6.7	1.6	2.7	4.5	4.2
C#C[C@]1(O)CC[C@H]2[C@@H]3CC=C4c5sc(N6CCN(C)CC6)nc5CC[C@]4(C)[C@H]3CC[C@@]21C	2.6	7.4	2.8	2	2.8
C#C[C@]1(O)CC[C@H]2[C@@H]3CC=C4c5sc(Nc6ccc(C)cn6)nc5CC[C@]4(C)[C@H]3CC[C@@]21C	3.7	3.6	7.7	4.6	4.8
C[C@]12CCc3nc(Nc4ccc(F)cc4)sc3C1=CC[C@@H]1[C@@H]2CC[C@]2(C)C(=O)CC[C@@H]12	6.4	1.8	4.5	3.4	1.4
C#C[C@]1(O)CC[C@H]2[C@@H]3CC=C4c5sc(Nc6cc(OC)ccc6Cl)nc5CC[C@]4(C)[C@H]3CC[C@@]21C	4.8	3.2	9.7	3.4	3.1
C#C[C@]1(O)CC[C@H]2[C@@H]3CC=C4c5sc(Nc6ccc(C)c(Cl)c6)nc5CC[C@]4(C)[C@H]3CC[C@@]21C	4.3	3.9	4.9	5.6	4.6
C#C[C@]1(O)CC[C@H]2[C@@H]3CC=C4c5sc(Nc6ncccn6)nc5CC[C@]4(C)[C@H]3CC[C@@]21C	4.9	7.8	13.5	2.8	5.7
